# From patent publication US20070098735A1, “Methods for the Elimination of Pathogens and Other Particulate Agents” (priority 2005, published 2007)
# Legend:
# [1] = tested on: lipid raft (LR) microdomain of the macrophage plasma membrane; assay: Binding of exogenous HRP-labeled HSP70 to purified lipid raft fractions; design: species or system murine; conditions: HRP-labeled HSP70 100 μg/ml; with ganglioside GM1; Brij98 or Triton X-100
# Experimental: Purification of lipid rafts. Lipid rafts were purified as DRMs (detergent resistant membrane) using non-ionic detergents following sucrose gradient centrifugation. […] After incubation, cells were washed 3× with PBS and lysed with 2 ml MES (4-morpholinoethanesulfonic acid) buffered saline (MBS; 150 mM NaCl, 20 mM MES, pH 6.5, […] and 5 mM iodoacetamide) containing 0.5% Triton X-100 or 1% for 30 minutes on ice or 7 minutes at 37° C. respectively. The cells were mixed with an equal volume of 90% sucrose in MEB buffer (150 mM NaCl, 20 mM MES [pH 6.5]) and placed at the bottom of the centrifuge tube. […] Fractions of 1 ml each were collected from the bottom of tube and each fraction was analyzed by SDS-PAGE and immunoblotting.
# Briefly, RAW264.7 macrophages were treated with exogenous HRP-labeled HSP70 (100 μg/ml) or were left untreated for 60 minutes and washed with PBS three times to remove free HSPs. […] These fractions obtained (light: LR and heavy: non-LR) were then analyzed using immunoblotting to detect HRP activity of HSP70-HRP complexes or tested for the presence of an LR-associated ganglioside GM1 by using HRP-cholera toxin B. Similarly, these fractions were tested for the amount of cholesterol using (Biovision Research Products, CA). […]
# [2] = tested on: Murine macrophage lines (RAW264.7, J774.A1 or RAW264NO-); assay: Phagocytosis assay in vitro (uptake of Alexa Fluor 488-labeled particles); type: cell-based
# Summary of the method: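 Macrophages in serum-free EMEM took up Alexa Fluor 488 beads, yeast or E. coli (40 particles/cell) for 60 min at 37 °C with or without HSPs, LPS or control proteins. Trypan blue (0.8 mg/ml, 60 s) quenched external fluorescence, and intracellular signal was read as relative mean fluorescence intensity. Data are from 3 experiments, 3 wells/group, compared with medium alone by Student's t test.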
# [3] = tested on: full thickness wounds of naïve mice; assay: Adoptive transfer of pre-treated RAW 264.7 macrophages into wounded mice, wound closure; type: in vivo
# Experimental: Macrophage Cell Culture, Pre-treatment, and Adoptive Transfer. RAW 264.7 macrophages (ATCC) were grown as described by ATCC. Cells were harvested by gently scraping them from the cell culture flasks, centrifuged and washed once in cultured grade PBS. […] They were then washed 3 times with PBS, and were re-suspended to achieve a concentration of 400,000, 40,000, or 4,000 cells per 0.5 ml PBS. Adoptive transfer of these cells was performed by subcutaneous injections in the nape of the neck using a 25-gauge needle in mice that were wounded as previously described. Adoptive transfers were given on days 0, 2 and 4 post-operatively.
# Macrophages were treated in vitro with either HSPs or non-HSP controls and transferred into naïve wounded mice (as described in Materials and Methods) to test if HSPs could in part mediate some of their activity through macrophages. […] Data is plotted as average percent wound closure ±SEM on day 2. *P values were obtained using the Student's t-test by comparing HSP treatment to all of the non-HSP control treatments. The least significant P value was reported.
# Titratability of adoptive transfer was examined by transferring 4,000, 40,000 or 400,000 macrophages pre-treated as described in Materials and Methods.
substance,measurement,setting,value
"HSP70: heat shock protein purified from murine livers, prepared as a complex with endogenous peptide",localisation of exogenously administered HSP70,[1],co-localized on the LR-microdomain of the macrophage plasma membrane
same,rank as stimulator of phagocytosis among the agents tested,[2]; HSP70 100 μg/ml vs TLR7-ligands 1 mg/ml,most potent stimulator of phagocytosis
same,uptake of microbial or non-microbial materials as compared to control proteins or buffer,"[2]; HSPs 100 μg/ml, P<0.01 vs medium alone",increase in uptake
same,increase in phagocytosis,"[2]; RAW264.7, labeled S. cerevisiae, HSP70 100 μg/ml, 60 minutes at 37° C.",4-6 times the basal rate
same,uptake of yeast by macrophages pre-treated with HSP and washed,[2]; compared with HSP and yeast administered simultaneously,enhanced the uptake of yeast to the same extent
same,doses unable to stimulate uptake,[2]; dose range 10-100 μg/ml,less than 20 μg/ml
same,quantity of phagocytosis at higher doses,[2]; doses up to 200 μg/ml,did not result in any further increase in the quantity of phagocytosis
same,dose at which the peak effect occurred,[2]; plateau through 100 μg/ml,40 µg/mL
same,ability to enhance phagocytosis,"[2]; serum-free conditions, 1 hour, HSP70 100 μg/ml, LPS 25 ng-1 μg/ml, heating 100° C. for 20 minutes",able to enhance phagocytosis equally whether in the presence or absence of serum
same,time for antigen uptake to reach a plateau,[2]; time-titration 10-90 minutes,≤ 45 min
same,titratability of adoptive transfer by cell number,"[3]; 4,000, 40,000 or 400,000 pre-treated macrophages",Increasing the number of HSP pretreated cells increases the percentage of wound closure
same,early wound closure after adoptive transfer of pre-treated macrophages,"[3]; 400,000 macrophages pre-treated at 30 μg/dose",significantly accelerated early wound closure
same,wound healing on day 2 after adoptive transfer of pre-treated macrophages,"[3]; 400,000 macrophages pre-treated at 30 μg/dose, day 2 post surgery",62%
